Experimental data reported in US10195166B2, “Methods for treating hepatitis C virus infectious disease” (priority 2013, dated 2019).
No end group written: not given here.

What was measured:
Format in all cases: cell-based, hepatitis C virus
[1] = test system: in vitro HCV infection model (HCVcc infected Huh7 cells); assay: HCV RNA level after transfection with expression vectors for GRIM19 domains in in vitro HCV infection model; conditions: overexpression of the domain by transfection with expression vector (FIG. 11b)
Experimental: An expression vector which can express the […], GRIM19-D2 (aa 37-72), GRIM19-D3 (aa 73-101), and GRIM19-D4 (aa 102-144) above was prepared, and the effect of each domain was evaluated in in vitro HCV infection model in Example 2.
In order to prepare the expression vector, the gene for each domain of GRIM19 was obtained through PCR with template of the vector expressing pcDNA3_GRIM19, and each domain was subcloned into pCMV-3Tag-3A vector (Agilent Technologies, Inc.) using restriction sites of restriction enzymes EcoRI and SalI. For GRIM19-D2, GRIM19-D3, and GRIM19-D4 to be expressed in the vector, a start codon was added prior to 5′ of the actually corresponding gene sequence of GRIM19. Accordingly, for each protein fragment, methionine was added prior to the N terminus of the actually corresponding amino acid sequence of GRIM19.

[2] = test system: HCVcc infected Huh7 cells; assay: HCV replication, GRIM19 overexpression combined with DGAT-1 inhibitor; conditions: 40 μM compound of Formula 1 simultaneously with GRIM19 overexpression in HCVcc infected Huh7 cells (FIG. 9)
[3] = test system: Huh7 cells infected with HCVcc; assay: HCV RNA level after direct treatment with cell permeable GRIM19 domain peptides; conditions: 10 μM peptide for 48 hours (FIG. 12)
Experimental: In order to confirm whether an anti-HCV effect is shown when penetrating each domain itself of GRIM19 protein into cells, the effect was evaluated in in vitro HCV infection model by synthesizing peptides in which cell permeable peptide sequences (CP) bind to N-terminal of each domain of GRIM19 of Example 8. The sequences of each domain of GRIM19 comprising the synthesized cell permeable peptide sequences (CP) were analyzed in Table 4 below.
After treating Huh7 cells infected with HCVcc through in vitro HCV infection model of Example 2 with 10 μM of CP-GRIM19-D1, CP-GRIM19-D2, and CP-GRIM19-D3 for 48 hours, the level of RNA in HCV was examined.

[4] = test system: HCVcc infected Huh7 cells; assay: HCV RNA copies, GRIM19 overexpression and/or sofosbuvir in in vitro HCV infection model; conditions: transfection with pcDNA3_GRIM19 plus sofosbuvir (FIG. 10)
Experimental: HCVcc infected Huh7 cells were transfected with pcDNA3_GRIM19 using FUGENE HD, as in Example 3 above, the cells were treated with sofosbuvir (PharmaBLOCK R&D Co. Ltd.) (Formula 2):
[drawing 6] a compound inhibiting RNA-dependent RNA polymerase activity of HCV, or the cells were transfected with pcDNA3_GRIM19 and treated with sofosbuvir. Then, a change in HCV RNA copies was evaluated.

HCV = HCV RNA copies, GRIM19 overexpression combined with metformin; conditions: transfection with pcDNA3_GRIM19 plus metformin (FIG. 8)
Source text: In this regard, a change in HCV RNA copies was examined in the case of administration of metformin (Sigama Aldrich, Cat. D150959), an activator of AMP-activated protein kinase (AMPK) inhibiting the activity of ACC, in combination.

Molecule	level of HCV RNA [1]	level of HCV RNA [3]	also measured
GRIM19-D2: GRIM19 protein fragment aa 37-72 (SEQ ID NO: 8), expressed from pCMV-3Tag-3A vector (MAIGIGTLIYGHWSIMKWNRERRRLQIEDFEARIALL; also: 3Tag vector tags, position not given here)	significantly decreased	–	–
O=C(Nc1ccccc1)Nc1ccc(-c2ccc(C(=O)[C@@H]3CCC[C@H]3C(=O)O)cc2)cc1 [A922500]	–	–	effect of the combination on HCV replication [2]: synergistic effect of inhibiting HCV replication
GRIM19-D1: GRIM19 protein fragment aa 1-36 (SEQ ID NO: 6), expressed from pCMV-3Tag-3A vector (MAASKVKQDMPPPGGYGPIDYKRNLPRRGLSGYSML; also: 3Tag vector tags (pCMV-3Tag-3A))	significantly decreased	–	–
CP-GRIM19-D1: synthesized peptide, cell permeable peptide sequence (CP) at N-terminal of GRIM19 domain 1, SEQ ID NO: 14 (RRRRRRRRRMAASKVKQDMPPPGGYGPIDYKRNLPRRGLSGYSML; CP-GRIM19-D1)	–	significantly decreased	–
CC(C)OC(=O)[C@H](C)N[P@](=O)(OC[C@H]1O[C@@H](n2ccc(=O)[nH]c2=O)[C@](C)(F)[C@@H]1O)Oc1ccccc1 [sofosbuvir]	–	–	effect of the combination on HCV [4]: synergistic effect of inhibiting HCV; lower increase in HCV RNA than treatment with sofosbuvir alone [4]: ≥ 45%
CN(C)C(=N)N=C(N)N [metformin]	–	–	effect of the combination on HCV (HCV): synergistic effect of inhibiting HCV; increase in HCV RNA compared with treatment with metformin alone (HCV): considerably lower
GRIM19-D4: GRIM19 protein fragment aa 102-144 (SEQ ID NO: 12), expressed from pCMV-3Tag-3A vector (MDWKVGESVFHTTRWVPPLIGELYGLRTTEEALHASHGFMWYT; also: 3Tag vector tags (pCMV-3Tag-3A))	significantly decreased	–	–
CP-GRIM19-D3: synthesized peptide, cell permeable peptide sequence (CP) at N-terminal of GRIM19 domain 3, SEQ ID NO: 16 (RRRRRRRRRPLLQAETDRRTLQMLRENLEEEAIIMKDV; CP-GRIM19-D3)	–	significantly decreased	–
GRIM19-D3: GRIM19 protein fragment aa 73-101 (SEQ ID NO: 10), expressed from pCMV-3Tag-3A vector (MPLLQAETDRRTLQMLRENLEEEAIIMKDV; also: 3Tag vector tags, position not given here)	significantly decreased	–	–
CP-GRIM19-D2: synthesized peptide, cell permeable peptide sequence (CP) at N-terminal of GRIM19 domain 2, SEQ ID NO: 15 (RRRRRRRRRAIGIGTLIYGHWSIMKWNRERRRLQIEDFEARIALL; CP-GRIM19-D2)	–	significantly decreased	–
